# Reference: patent US6989396B2, “Tropane alkaloid multidrug resistance inhibitors from Erythroxylum pervillei and use of the same” (The Board of Trustees of the University of Illinois, priority 2001, dated 2006)
# Read-outs that look alike come from different tables or passages of the source.
# Assays:
# KB-V1, drug resistant KB = test: In vitro cytotoxicity, human tumor panel: KB-V1 with or without vinblastine; format: cell-based; details: for IC50: Homo sapiens, KB-V1, drug-resistant KB assessed in the absence of vinblastine, read-out: ED50 KB-V1−; for ED50 KB-V1+: drug resistant KB assessed in presence of vinblastine (1 μg/mL)
# Protocol: (§1) Cytotoxicity assay. Compounds 1–9 were evaluated for cytotoxic activity against a panel of human cancer cell lines, including KB-V1 in the presence and absence of VLB, according to an established protocol (68).
# UO-31, renal = test: In vitro multidrug resistance modulation (DINIB synergy): UO-31; format: cell-based, human; details: increase of cytotoxicity of DINIB 1 × 10^−4 M; modulator μg/mL: verapamil 12.5, cyclosporin A 6.3, pervilleine B 12.5, C 3.1, D 50.0, F 25.0; <25 insignificant, >100 strong synergy
# Source text: (§2) Alkaloids 5–7 and 9 were further evaluated for their efficacy as potential modulators of P-glycoprotein. This assay assessed the ability of these test compounds to increase the cytotoxicity of an agent of the MDR phenotype {4,9-dihydro-3-iso-butyl-2-methyl-1-(p-nitrophenacyl)-4,9-dioxo-1H-naphth[2-3-d]imidazolium bromide (DINIB)}, compared with an agent not of the MDR phenotype (5-flurouracil), used as a negative control (73, 74).
# (§3) In vitro multidrug resistance assay.
# Lu1, lung cancer = test: In vitro cytotoxicity, human tumor panel: Lu1; format: cell-based; details: Homo sapiens, read-out: ED50 Lu1
# Protocol: as §1
# Col2, colon cancer = test: In vitro cytotoxicity, human tumor panel: Col2; format: cell-based; details: Homo sapiens, read-out: ED50 Col2
# Protocol: as §1
# HCT-15, colon = test: In vitro multidrug resistance modulation (DINIB synergy): HCT-15; format: cell-based, human; details: increase of cytotoxicity of DINIB 1 × 10^−4 M; modulator μg/mL: verapamil 12.5, cyclosporin A 6.3, pervilleine B 12.5, C 3.1, D 50.0, F 25.0; <25 insignificant, >100 strong synergy
# Source text: as §2, §3
# [1] = tested on: KB, oral epidermoid carcinoma; test: In vitro cytotoxicity, human tumor panel: KB; format: cell-based; details: Homo sapiens, read-out: ED50 KB
# Protocol: as §1
# CAKI-1, renal = test: In vitro multidrug resistance modulation (DINIB synergy): CAKI-1; format: cell-based, human; details: increase of cytotoxicity of DINIB 1 × 10^−4 M; modulator μg/mL: verapamil 12.5, cyclosporin A 6.3, pervilleine B 12.5, C 3.1, D 50.0, F 25.0; <25 insignificant, >100 strong synergy
# Source text: as §2, §3
# LOX IMVI, melanoma = test: In vitro multidrug resistance modulation (DINIB synergy): LOX IMVI; format: cell-based, human; details: increase of cytotoxicity of DINIB 1 × 10^−4 M; modulator μg/mL: verapamil 12.5, cyclosporin A 6.3, pervilleine B 12.5, C 3.1, D 50.0, F 25.0; <25 insignificant, >100 strong synergy
# Source text: as §2, §3
# BC1, breast cancer = test: In vitro cytotoxicity, human tumor panel: BC1; format: cell-based; details: Homo sapiens, read-out: ED50 BCI
# Protocol: as §1
# [2] = tested on: LNCaP, hormone-dependent prostate cancer; test: In vitro cytotoxicity, human tumor panel: LNCaP; format: cell-based; details: Homo sapiens, LNCaP, read-out: ED50 LNCaP
# Protocol: as §1
# [3] = tested on: SW626, human ovarian adenocarcinoma; test: In vitro cytotoxicity, human tumor panel: SW626; format: cell-based; details: SW626, read-out: ED50 SW626
# Protocol: as §1
# [4] = tested on: SKOV3 (ovarian adenocarcinoma); test: Cytotoxicity in ovarian adenocarcinoma SKOV3 (pGp -ve); format: cell-based; details: Homo sapiens, SK-OV-3, read-out: IC50 SKOV3 (pGp − ve)
# Protocol: as §1
# KB-3 cells = test: Growth inhibitory potential (sulforhodamine B cell survival assay): KB-3; format: cell-based; details: Homo sapiens, KB3, 72 h, read-out: IC50 KB-3
# Protocol: (§4) One part of a natural product drug discovery program involves monitoring the potential of plant extracts to reverse multiple drug resistance. […] To investigate the potential of plant extracts or compounds to reverse multidrug-resistance, KB-V1 cells are treated with different concentrations of plant extracts or compounds in the presence (1 μg/ml) or absence of vinblastine.
# (§5) Cytotoxic potential. The cytotoxic potential of test substances with KB-3, KB-V1 and KB-8-5 cells was determined as described previously (24). Briefly, various concentrations of test compounds (dissolved in 10 μl of 10% DMSO) were transferred to 96-well plates, and 190 μl aliquots of cell suspensions (5×10^4 cells/ml) were added to each well. The plates then were incubated for 72 hours at 37° C. (100% humidity with a 5% CO2 atmosphere in air), and 100 μl of cold 20% aqueous trichloroacetic acid were added to the growth medium in each well to fix the cells. The cultures were incubated at 4° C. for 30 minutes, washed, air-dried, stained with sulforhodamine B solution, and washed with 1% acetic acid. Finally, 200 μl of 10 mM Tris base were added to each well and the optical densities were determined at 515 nm utilizing an ELISA plate reader. In each case, a zero-day control was performed by adding an equivalent number of cells to several wells and incubating at 37° C. for 30 minutes, and processing as described above. Optical density values obtained with the zero-day control were subtracted, and cell survival, relative to control (solvent-treated) cultures, was calculated. The cytotoxic potential of the compounds with CEM and CEM/VLB100 cells was determined as described by Beck et al. (30). Cells were grown in 24-well plates at a density of 5–6×10^5 cells/ml. At 48 hours, the cell number was determined using a Coulter Counter, with a channelizer to distinguish cells from debris.
# KB-V1 cells [5] = test: Reversal of MDR, cell survival assay: KB-V1 with or without vinblastine; format: cell-based, human
# Protocol: as §4
# as §5, with “Finally, 200 μl of 10 mM Tris base were added to each well and the optical densities were determined at 515 nm utilizing an ELISA plate reader.” left out
# KB-V1 cells [6] = test: In vivo hollow fiber test: KB-V1; parameters: species or system NCr nu/nu mice
# Protocol: In vivo hollow fiber test. […] Confluent monolayers of KB-3, KB-V1 or KB-8-5 cells were harvested, collected by centrifugation and resuspended in conditioned medium at a concentration of 7.5×10^5 cells/ml.
# Test compounds were administrated once daily by intraperitoneal injection from day 3–6 after implantation. Body weights were measure daily.
# After incubating at 37° C. for 4 hours, the culture medium was aspirated and the samples were washed twice with normal saline containing 2.5% protamine sulfate solution by overnight incubation at 4° C. […] The formazan was extracted from each sample with DMSO (250 μl/well) for 4 hours at room temperature on a rotation platform.
# [7] = tested on: SKVLB (ovarian adenocarcinoma, multidrug resistance); test: Multidrug resistance inhibition in SKVLB (pGp +ve); format: cell-based, human; details: Homo sapiens
# [8] = summation of single-agent inhibitions
SMILES,"IC50 (KB-V1, drug resistant KB) [µg/mL]","ED50 KB-V1+ (KB-V1, drug resistant KB) [µg/mL]","synergy value at a 95% confidence level, UO-31 (UO-31, renal)","IC50 (Lu1, lung cancer) [µg/mL]","IC50 (Col2, colon cancer) [µg/mL]","synergy value at a 95% confidence level, HCT-15 (HCT-15, colon)",IC50 [1] [µg/mL],"synergy value at a 95% confidence level, CAKI-1 (CAKI-1, renal)","synergy value at a 95% confidence level, LOX IMVI (LOX IMVI, melanoma)","IC50 (BC1, breast cancer) [µg/mL]",IC50 [2] [µg/mL],IC50 [3] [µg/mL],other results
"COc1cc(C=CC(=O)O[C@@H]2C[C@@H]3[C@@H](OC(=O)C=Cc4cc(OC)c(OC)c(OC)c4)[C@@H](O)[C@H](C2)N3C)cc(OC)c1OC [Compound 7, 3α,6β-di-(3,4,5-trimethoxycinnamoyloxy)-7β-hydroxytropane]",9,0.2,562.7,15.1,4.9,758.3,11,387.9,13.2,15,14.1,6.5,melting point: 59 to 61 °C
"COc1cc(C=CC(=O)O[C@H]2C[C@@H]3C[C@H](OC(=O)c4cc(OC)c(OC)c(OC)c4)C[C@H]2N3C)cc(OC)c1OC [Compound 5, 3α-(3,4,5-trimethoxybenzoyloxy)-6β-(3,4,5-trimethoxycinnamoyloxy)tropane]",8.8,0.1,248.7,3.1,1.3,607.6,> 20,268.1,33.3,9.4,1,3.2,"IC50 [4]: 3.8 µM; IC50 (KB-3 cells): > 35 µM; IC50 (KB-V1 cells [5]; Homo sapiens, KB-V1, absence of vinblastine, 72 hours, read-out: IC50 KB-V1 (−)): 15 µM; Ratio of IC50 values [KB-V1 (−)]/[KB-V1 (+)] (KB-V1 cells [5]; vinblastine 1 μg/ml): 88; growth inhibition, administered as single agents (KB-V1 cells [6]; KB-V1 or KB-8-5 cells in hollow fibers implanted into NCr nu/nu mice): not significantly inhibited; Calculated inhibition (vinblastine + reversing agent as single agents), KB-V1, i.p. site (KB-V1 cells [6]; [8]): 9.4%; Calculated inhibition (vinblastine + reversing agent as single agents), KB-V1, s.c. site (KB-V1 cells [6]; [8]): 3.8%; Observed inhibition from coadministration with vinblastine, KB-V1, s.c. site (KB-V1 cells [6]; vinblastine 250 μg/kg + reversing agent 0.136 mmol/kg): 1.4 (P = 0.87) %; Observed inhibition from coadministration with vinblastine, KB-V1, i.p. site (KB-V1 cells [6]; vinblastine 250 μg/kg + reversing agent 0.136 mmol/kg, i.p. injection once daily days 3–6, listed as pervilleine B): 66.8 (P < 0.0001) %; Growth inhibition, single agent, KB-V1, s.c. site (KB-V1 cells [6]; vinblastine 250 μg/kg, reversing agents 0.136 mmol/kg, i.p. injection once daily days 3–6): 0%; IC50 ([7]; read-out: IC50 BSKVLB (pGp + ve)): > 10 µM; IC50 ([7]; read-out: IC50 SKVLB (pGp + ve), addition of adriamycin): 0.12 µM"
